The values below come from patent publication US20100292306A1, “Compositions And Methods For The Treatment Of Muscular Dystrophy” (priority 2005, published 2010).

The assay concerns mdx mice. The assay is described as follows: Noninvasive whole body tension (WBT) measurement of forward pulling tensions. It is filed as in vivo. An excerpt: FIG. 18 presents individual “forward pulling tensions” (FPTs; upward deflections) recorded from a PDTC-treated mouse (Series 2) using the whole body tension (WBT) technique (Carlson and Makiejus, 1990). The rank order of FPTs from highest to lowest is indicated by the numbers in the figure. […] In the Series 2 experiments, WBT measurements were obtained from each of the saline-injected and PDTC-injected mice on days 0, 9, 21 and 40 of the experiment.
As a first step in examining the potential effects of PDTC treatment on WBT tension development, the slope of the decline in FPTs was evaluated for each recording session for each mouse examined in the Series 2 experiments (FIG. 19A, 19B). This measure essentially provides a “fatigue index” (FI) since the slope of the decline in FPTs is a direct measure of the average magnitude of the decline in FPT per individual pull for rank-ordered pulls number 2 through 10. If 10 individual pulls obtained during the recording session have identical magnitudes representing the highest FPT, then the FI equals 0. In contrast, a 50% reduction in FPT per pull would produce an FI equal to −0.5.
To examine the potential effect of PDTC treatment on FI in age matched adult mdx mice, a pre-treatment FU was obtained during a typical recording session from each of 10 mdx mice used in the Series 2 investigations (age 9.5 to 16 months at beginning of study). Five of the mice were subsequently treated with daily injections of vehicle (HEPES buffered Ringer's solution) and 5 of the mice were treated with daily injections of 50 mg/kg PDTC. Recordings for each of the mice were subsequently obtained on days 9, 21, and 40 of the treatment period (e.g., FIG. 19). To determine the potential effects of treatment on FI, the FIs obtained on days 9, 21, and 40 (e.g., FIG. 19) were each normalized to the pre-treatment FI for each of the 10 mice used in the study. […] A decrease in the FI indicating a reduction in the average loss of tension per pull during the course of the study would produce normalized FIs less than one, no change in FI would be associated with normalized FIs equal to 1.0, and increases in FI would produce normalized FIs greater than 1.0.
Mdx (C57 Bl10-mdx) and nondystrophic (C57Bl10-SnJ) mice were obtained from Jackson laboratories and bred under conditions approved by the Institutional Animal Care and Use Committee (IACUC). All studies were performed in accordance with the guidelines provided by the IACUC. Male and female PDTC treated mdx mice received daily intraperitoneal (ip) injections of 50 mg/kg pyrollidine dithiocarbamate (PDTC; Sigma P8765) dissolved in sterile-filtered (0.2 μm) HEPES-buffered Ringers solution (147.5 mM NaCl, 5 mM KCl, 2 mM CaCl2, 11 mM glucose, 5 mM Hepes, pH 7.35). Age- and gender-matched groups of vehicle-treated mice received corresponding injections of HEPES Ringers. See Carlson et al., 2005. The PDTC experiments were conducted on two series of mature adult mdx mice (9.5-16 month; 19-20 months) and on a series of young adult (1 month) mice. In each case, the mice in the experimental and vehicle-treated groups were matched according to age and gender with an equal number of males and females in each group. WBT tension measurements were obtained prior to initiating treatment and on multiple occasions following at least 3 weeks (20 days) of treatment.
A group of 30 day-old mdx mice were exposed to daily ip injections (30 day) of 40 mg/kg UDCA (Sigma #5127; 2 mg/ml; N=12 experimental) in an isotonic saline vehicle (1.02% NaCl, pH 8.4,) or a synthetic taurine derivative of UDCA (tauroursodeoxycholic acid, TUDCA, SpA Laboratorio Farmacologico, Cenate Sotto, Italy; 6 mg/ml; N=4 experimental) administered in a saline vehicle (NaCl 6 g/l, KCl 0.3 g/l, CaCl2 0.2 g/l, Na acetate 4 g/l, 300 mosM/l, pH 6.1).
WBT measurements were obtained as indicated in Examples 5 through 7 by placing an approximately 0.5 inch square piece of adhesive tape around the tail about 1 inch from the tip. […]

Setting [1] is: individual 6 month mdx male, 50 mg/kg for 30 days (FIG. 34C).
Where [2] appears, read: mature mdx, Series 2 through 4, post-treatment (at least 20 days), p<0.05.
Setting [3] is: mature mdx, Series 2 through 4, p<0.05.

“Also recorded” adds a separate entry of the source.

On to `S=C(S)N1CCCC1` [PDTC, pyrrolidine dithiocarbamate], for which, for the setting “50 mg/kg 30 consecutive days from about 30 days of age, at 60 days”, the “functional reserve FR (WBT10/WBT5)” value was “approximately 0.9”. Further, the “normalized fatigue index (FI), effect of treatment over days” value (Series 2, 50 mg/kg daily, Kruskal-Wallis p<0.05, Day 0 vs Day 9 and Day 40) is “significant effect”. Also, the “normalized FI vs vehicle-injected” value (Series 2, Day 40, p<0.05) was “significantly different”. Besides, where the note is “Series 2, Days 9, 21 and 40 combined, p<0.05 vs vehicle”, the “fatigue index (FI), combined post-treatment results” value is listed as “reducing; also recorded: reduces”. Moreover, the “normalized FI vs vehicle-injected” value (Series 2, Days 9 and 21) is “failed to reach significance”. Further, under setting [1], the “FPT10 as percent of FPT1” value was “approximately 77%” and the “maximum FPT” value is recorded as “approximately 310 g”. In addition, the “whole body strength” value (mature mdx mice) is listed as “significantly increasing”. Besides, under setting [2], the “WBT5 vs vehicle-injected” value was “elevated” and the “WBT10 vs vehicle-injected” value was “elevated”. Besides, under setting [3], the “FR (WBT10/WBT5) post-treatment vs pre-treatment” value was “increased” and the “WBT10 post-treatment vs pre-treatment” value is “increased”. In addition, under “young mdx, 60 days of age”, the “increase in WBT5 relative to vehicle” value was “did not reach statistical significance” and the “increase in WBT10 relative to vehicle” value is recorded as “did not reach statistical significance”. For the same compound, for the setting “young mdx, 60 days of age, p<0.01”, the “FR relative to vehicle-injected mdx mice” value is given as “increased; also recorded: prevents a decline”.
